Results reported in article PMC5548886 (Cancer Medicine, 2017).

Key:
Experiment in all cases: IHC of tumor biopsies, H-score change on-treatment vs pretreatment
Type in all cases: in vivo, human
cytoplasmic p-ERK = test system: cytoplasmic p-ERK
Experimental: (§1) Pharmacodynamic markers were examined using peripheral blood samples, tumor and nevi biopsies (when available) and tumor imaging. BRAF mutation status was determined by Sanger sequencing. Pharmacodynamic markers analyzed, in available tumor/nevus samples obtained before treatment or archival tissue and during treatment on cycle 1, day 8 or day 15, including cytoplasmic p‐MEK, p‐ERK, BIM, c‐KIT, p‐AKT473, pS6 and PTEN, and nuclear p‐ERK, Ki‐67, PARP, cyclin D1, MITF, p27, and p53. Biomarker expression was determined by calculating the percentage of change in the H‐score (14) between on‐treatment and fresh/archival pretreatment specimens. Blood levels of VEGFR‐2 and were assessed before and at multiple time points while on treatment using enzyme‐linked immunosorbent assay (ELISA). […] Changes in standard uptake value (SUV) were determined by a blinded, independent central imaging review panel. Complete metabolic response (CMR) was complete resolution of tumor FDG‐PET uptake so SUV is the same as background. Partial metabolic response (PMR) decrease in sum of the tumor SUV of ≥25% from the baseline scan. Progressive metabolic disease (PMD) was defined as an increase in tumor SUV of ≥25% from the baseline scan, or the appearance of new FDG‐PET uptake in metastatic lesions. Stable metabolic disease (SMD) was defined as a change in tumor SUV between the PMR and PMD criteria.

BIM = test system: BIM
Experimental: as §1

nuclear p-ERK = test system: nuclear p-ERK
Experimental: as §1

PTEN = test system: PTEN
Experimental: as §1

p27 = test system: p27
Experimental: as §1

cytoplasmic p-MEK = test system: cytoplasmic p-MEK
Experimental: as §1

SMILES: Cn1c(Nc2ccc(C(F)(F)F)cc2)nc2cc(Oc3ccnc(-c4ncc(C(F)(F)F)[nH]4)c3)ccc21 [RAF265]
- cytoplasmic pERK % change vs pretreatment, Mean (SD) (cytoplasmic p-ERK; DL 5, n 2): +27.1 (56) %
- cytoplasmic pERK % change vs pretreatment, Median (cytoplasmic p-ERK; DL 5, n 2): +27.1%
- cytoplasmic pERK % change vs pretreatment, Mean (SD) (cytoplasmic p-ERK; DL 6, n 5): -27.0 (40.9) %
- cytoplasmic pERK % change vs pretreatment, Median (cytoplasmic p-ERK; DL 6, n 5): -50.00%
- cytoplasmic pERK % change vs pretreatment, Mean (SD) (cytoplasmic p-ERK; DLs 1 - 4, n 2): +52.3 (80) %
- cytoplasmic pERK % change vs pretreatment, Median (cytoplasmic p-ERK; DLs 1 - 4, n 2): +52.3%
- cytoplasmic pERK % change vs pretreatment, Mean (SD) (cytoplasmic p-ERK; DLs 7 and 7.1, n 4): -17.8 (11.5) %
- cytoplasmic pERK % change vs pretreatment, Median (cytoplasmic p-ERK; DLs 7 and 7.1, n 4): -13.5%
- p-ERK expression change (cytoplasmic p-ERK; patients treated at DL1-5): increase in p‐ERK expression
- p-ERK abundance change (cytoplasmic p-ERK; patients treated at DL 6-7.1): moderately decreased p‐ERK abundance
- BIM % change vs pretreatment, Mean (SD) (BIM; All patients, n 14): -17.00 (54.5) %
- BIM % change vs pretreatment, Median (BIM; All patients, n 14): 0%
- BIM % change vs pretreatment, Mean (SD) (BIM; DL 5, n 1): -100%
- BIM % change vs pretreatment, Median (BIM; DL 5, n 1): -100%
- BIM % change vs pretreatment, Mean (SD) (BIM; DL 6, n 2): -7.1 (11.1) %
- BIM % change vs pretreatment, Median (BIM; DL 6, n 2): -7.1%
- BIM % change vs pretreatment, Mean (SD) (BIM; DLs 1 - 4, n 8): -18 (65.1) %
- BIM % change vs pretreatment, Median (BIM; DLs 1 - 4, n 8): -14.3%
- BIM % change vs pretreatment, Mean (SD) (BIM; DLs 7 and 7.1, n 3): +6.7 (5.8) %
- BIM % change vs pretreatment, Median (BIM; DLs 7 and 7.1, n 3): +10%
- nuclear pERK % change vs pretreatment, Mean (SD) (nuclear p-ERK; All patients, n 21): -2 (51.6) %
- nuclear pERK % change vs pretreatment, Median (nuclear p-ERK; All patients, n 21): 0%
- nuclear pERK % change vs pretreatment, Mean (SD) (nuclear p-ERK; DL 5, n 2): +18.2 (35.8) %
- nuclear pERK % change vs pretreatment, Median (nuclear p-ERK; DL 5, n 2): +18.2%
- nuclear pERK % change vs pretreatment, Mean (SD) (nuclear p-ERK; DL 6, n 5): -41.8 (48) %
- nuclear pERK % change vs pretreatment, Median (nuclear p-ERK; DL 6, n 5): -22.2%
- nuclear pERK % change vs pretreatment, Mean (SD) (nuclear p-ERK; DLs 1 - 4, n 10): +21.1 (52.13) %
- nuclear pERK % change vs pretreatment, Median (nuclear p-ERK; DLs 1 - 4, n 10): 0%
- nuclear pERK % change vs pretreatment, Mean (SD) (nuclear p-ERK; DLs 7 and 7.1, n 4): -20.3 (31.3) %
- nuclear pERK % change vs pretreatment, Median (nuclear p-ERK; DLs 7 and 7.1, n 4): -7.6%
- PTEN % change vs pretreatment, Mean (SD) (PTEN; All patients, n 18): -3.16 (32.4) %
- PTEN % change vs pretreatment, Median (PTEN; All patients, n 18): 0%
- PTEN % change vs pretreatment, Mean (SD) (PTEN; DL 5, n 2): 0%
- PTEN % change vs pretreatment, Median (PTEN; DL 5, n 2): 0%
- PTEN % change vs pretreatment, Mean (SD) (PTEN; DL 6, n 5): -9.4 (27) %
- PTEN % change vs pretreatment, Median (PTEN; DL 6, n 5): 0%
- PTEN % change vs pretreatment, Mean (SD) (PTEN; DLs 1 - 4, n 8): -5 (44.1) %
- PTEN % change vs pretreatment, Median (PTEN; DLs 1 - 4, n 8): -7.4%
- PTEN % change vs pretreatment, Mean (SD) (PTEN; DLs 7 and 7.1, n 3): 10 (17.3) %
- PTEN % change vs pretreatment, Median (PTEN; DLs 7 and 7.1, n 3): 0%
- P27 % change vs pretreatment, Mean (SD) (p27; All patients, n 20): +86 (251.9) %
- P27 % change vs pretreatment, Median (p27; All patients, n 20): +5%
- P27 % change vs pretreatment, Mean (SD) (p27; DL 5, n 2): -40 (56.6) %
- P27 % change vs pretreatment, Median (p27; DL 5, n 2): -40%
- p27 abundance, median increase (p27; DL 6): 30.4%
- P27 % change vs pretreatment, Mean (SD) (p27; DL 6, n 5): +156.4 (312.2) %
- P27 % change vs pretreatment, Median (p27; DL 6, n 5): +30.4%
- p27 abundance, median increase (p27; DL 7/7.1): 72.2%
- P27 % change vs pretreatment, Mean (SD) (p27; DLs 1 - 4, n 9): -2.2 (44) %
- P27 % change vs pretreatment, Median (p27; DLs 1 - 4, n 9): 0%
- P27 % change vs pretreatment, Mean (SD) (p27; DLs 7 and 7.1, n 4): +261.1 (427.3) %
- P27 % change vs pretreatment, Median (p27; DLs 7 and 7.1, n 4): +72.2%
- cytoplasmic pMEK % change vs pretreatment, Mean (SD) (cytoplasmic p-MEK; All patients, n 23): -4.3 (32) %
- cytoplasmic pMEK % change vs pretreatment, Median (cytoplasmic p-MEK; All patients, n 23): -9.1%
- cytoplasmic pMEK % change vs pretreatment, Mean (SD) (cytoplasmic p-MEK; DL 5, n 2): 0%
- cytoplasmic pMEK % change vs pretreatment, Median (cytoplasmic p-MEK; DL 5, n 2): 0%
- cytoplasmic pMEK % change vs pretreatment, Mean (SD) (cytoplasmic p-MEK; DL 6, n 6): -16.1 (17.3) %
- cytoplasmic pMEK % change vs pretreatment, Median (cytoplasmic p-MEK; DL 6, n 6): -15.3%
- cytoplasmic pMEK % change vs pretreatment, Mean (SD) (cytoplasmic p-MEK; DLs 1 - 4, n 11): +0.8 (44.4) %
- cytoplasmic pMEK % change vs pretreatment, Median (cytoplasmic p-MEK; DLs 1 - 4, n 11): -11.1%
- cytoplasmic pMEK % change vs pretreatment, Mean (SD) (cytoplasmic p-MEK; DLs 7 and 7.1, n 4): -2.6 (5.3) %
- cytoplasmic pMEK % change vs pretreatment, Median (cytoplasmic p-MEK; DLs 7 and 7.1, n 4): 0%
